From patent US20230165252A1, “ACTIVE COMPOUND COMBINATIONS” (Bayer Aktiengesellschaft, priority 2020, published 2023)

experiment: Measurement of Log P values by HPLC on reversed phase columns (EEC directive 79/831 Annex V.A8), methods [a], [b], [c]; type: physicochemical; settings: HPLC method [a]
Method: Measurement of Log P values as provided herein was performed according to EEC directive 79/831 Annex V.A8 by HPLC (High Performance Liquid Chromatography) on reversed phase columns with the following methods: • ^[a]

SMILES	LogP
O=C(NCC(F)c1ccc(Br)cc1Cl)c1cc(Cl)nnc1Oc1cccc(C2CC2)c1 (racemic) [I-362]	4.87^[a]
Cc1nnc(Oc2cccc(C(F)F)c2F)c(C(=O)NCC(F)c2ccc(Br)cc2Cl)c1C (racemic) [I-369]	3.65^[a]

same assay, conditions: HPLC on reversed phase column, method [a]

SMILES	LogP
Cc1cc(C(=O)NC2CCOc3c(C)cccc32)c(Oc2cccc(C(F)(F)F)c2)nn1 (racemic) [I-107]	3.65^[a]
Cc1ccc(C(F)CNC(=O)c2c(Oc3cccc(C4CC4)c3F)nnc(C)c2C)c(C)c1 (racemic) [I-836]	3.78^[a]

same assay, conditions: method [a]

SMILES	LogP
Cc1ccc(C(F)(F)CNC(=O)c2c(Oc3cccc(C(F)(F)F)c3)nnc(Cl)c2NC2CC2C2CC2)c(C)c1 (mixture of isomers) [I-812]	4.87^[a]
O=C(NC1CCCc2ccsc21)c1cc(Cl)nnc1Cl (racemic) [Compound 3-16]	2.60^[a]
CC(NC(=O)c1cc(Cl)nnc1Cl)c1cn(C)c2ccccc12 (racemic) [Compound 3-18]	2.71^[a]
Cc1ccc(C(F)CNC(=O)c2c(Cl)nnc(Cl)c2C)c(Cl)c1 (racemic) [Compound 3-23]	3.22^[a]
O=C(NCC1CNc2ccccc21)c1cc(Cl)nnc1Oc1cccc(C(F)(F)F)c1 (racemic) [I-436]	2.42^[a]
O=C(NC1CCCc2sc(Cl)cc21)c1cc(Cl)nnc1Oc1cccc(C(F)(F)F)c1 (racemic) [I-639]	4.68^[a]
Cc1ccc(C(F)(F)CNC(=O)c2c(Oc3cccc(C(F)(F)F)c3)nnc(Cl)c2OCC2CC2(F)F)c(C)c1 (racemic) [I-683]	4.95^[a]
O=C(NCC(F)c1ccc(Cl)cc1Cl)c1c(Oc2cccc(C3CC3)c2F)nnc(Cl)c1I (racemic) [I-758]	4.73^[a]
Cc1ccc(C(F)(F)CNC(=O)c2cc([S+](C)[O-])nnc2Oc2cccc(C(F)(F)F)c2)c(C)c1 (racemic) [I-781]	3.65^[a]
O=C(NCC(F)c1ccc(Cl)cc1Cl)c1c(Oc2cccc(C3CC3)c2F)nnc(Cl)c1O (racemic) [I-782]	5.13^[a]
Cc1ccc(C(F)(F)CNC(=O)c2cc(C3CCOC3)nnc2Oc2cccc(C(F)(F)F)c2)c(C)c1 (racemic) [I-794]	3.78^[a]

same assay, conditions: method [a]: LC-UV, acidic range, 0.1% formic acid in water and acetonitrile as eluent (10% to 95% acetonitrile); Table 3, compounds of formula (1)

SMILES	LogP
Cc1c(Cl)nnc(Oc2cccc(C3CC3(F)F)c2)c1C(=O)O (racemic) [Compound 1-105]	1.69^[a]
Cc1c(Cl)nnc(Oc2cccc(C3CC3)c2F)c1C(=O)O [Compound 1-005]	1.84^[a]
N#Cc1cc(C(=O)O)c(Oc2cccc(C(F)(F)F)c2)nn1 [Compound 1-007]	1.74^[a]
Cc1nnc(Oc2cccc(C(F)(F)F)c2F)c(C(=O)O)c1C [Compound 1-009]	1.40^[a]
CC(C)OC(=O)c1cc(Cl)nnc1Oc1cccc(F)c1F [Compound 1-011]	3.65^[a]
O=C(O)c1cc(C2CC2)nnc1Oc1cccc(C(F)F)c1 [Compound 1-012]	1.68^[a]
Cc1nnc(Oc2cccc(C(F)F)c2F)c(C(=O)O)c1C [Compound 1-013]	0.96^[a]
C#Cc1cccc(Oc2nnc(Cl)cc2C(=O)O)c1 [Compound 1-017]	1.50^[a]
Cc1nnc(Oc2cccc(Cl)c2)c(C(=O)O)c1C [Compound 1-018]	0.80^[a]
Cc1cc(C(=O)O)c(Oc2cncc(C(F)(F)F)c2)nn1 [Compound 1-019]	1.01^[a]
O=C(O)c1cc(-c2ccncc2Cl)nnc1Oc1cccc(C(F)F)c1F [Compound 1-020]	1.86^[a]
O=C(O)c1cc(N2CCCC2)nnc1Oc1cccc(C(F)(F)F)c1 [Compound 1-021]	1.08^[a]
O=C(O)c1cc(Cl)nnc1Oc1cccc(F)c1F [Compound 1-024]	1.65^[a]
O=C(O)c1cc(Cl)nnc1Oc1cncc(C(F)(F)F)c1 [Compound 1-025]	1.31^[a]
Cc1nnc(Oc2cccc(C3CC3)c2)c(C(=O)O)c1C [Compound 1-037]	1.10^[a]
O=C(O)c1cc(C2CC2)nnc1Oc1cccc(C(F)(F)F)c1 [Compound 1-043]	1.90^[a]
O=C(O)c1cc(Cl)nnc1Oc1cccc(Br)c1 [Compound 1-048]	1.66^[a]
CC(C)OC(=O)c1cc(-n2ccnc2)nnc1Oc1cccc(C(F)(F)F)c1 [Compound 1-050]	2.55^[a]
O=C(O)c1cc(-c2ccncc2Cl)nnc1Oc1cccc(F)c1F [Compound 1-053]	1.22^[a]
O=C(O)c1cc(C(F)(F)F)nnc1Oc1cccc(C(F)(F)F)c1 [Compound 1-057]	2.27^[a]

same assay, conditions: method [a]: LC-UV, acidic range, 0.1% formic acid in water and acetonitrile as eluent; Table 5, compounds of formula (2)

SMILES	LogP
NCC(F)c1ccc(I)cc1 (racemic) [Compound 2-05]	0.73^[a]
Cc1cc(C(F)F)ccc1C(F)CN (racemic) [Compound 2-06]	0.69^[a]
NCC(F)c1ccc(C2CC2)cc1Cl (racemic) [Compound 2-07]	1.15^[a]

same assay, conditions: method [b]: LC-UV, neutral range, 0.001 molar ammonium acetate solution in water and acetonitrile as eluent (10% to 95% acetonitrile); Table 3, compounds of formula (1)

SMILES	LogP
O=C(O)c1cc(Cl)nnc1Oc1cccc(C(F)(F)F)n1 [Compound 1-031]	0.69^[b]
O=C(O)c1cc(Cl)nnc1Oc1cncc(C2CC2)c1 [Compound 1-051]	0.59^[b]

same assay, conditions: reversed-phase HPLC column, method [a]

SMILES	chromatographic logP
CC(=O)c1cc(C(=O)NCC(F)c2ccc(Br)cc2Cl)c(Oc2cccc(C(F)(F)F)c2)nn1 (racemic) [Compound I-605, 6-acetyl-N-[rac-2-(4-bromo-2-chloro-phenyl)-2-fluoro-ethyl]-3-[3-(trifluoromethyl)phenoxy]pyridazine-4-carboxamide]	4.49

same assay, conditions: reversed-phase HPLC column, method [a]: LC-UV, acidic range, 0.1% formic acid in water and acetonitrile as eluent (10% to 95% acetonitrile); Table 3, compounds of formula (1)

SMILES	chromatographic logP
COC(=O)c1c(Oc2cccc(C(F)(F)F)c2)nnc(Cl)c1C1CC1 [Compound 1-001]	3.94
Cc1c(Cl)nnc(Oc2cccc(Cl)c2)c1C(=O)O [Compound 1-002, 6-chloro-3-(3-chlorophenoxy)-5-methyl-pyridazine-4-carboxylic acid]	1.39
CSc1cc(C(=O)O)c(Oc2cccc(C(F)(F)F)c2)nn1 [Compound 1-004, 6-methylsulfanyl-3-[3-(trifluoromethyl)phenoxy]pyridazine-4-carboxylic acid]	2.25
COC(=O)c1c(Oc2cccc(C(F)F)c2F)nnc(C)c1C [Compound 1-006]	2.64
COCCc1c(Cl)nnc(Oc2cccc(C(F)(F)F)c2)c1C(=O)O [Compound 1-026, 6-chloro-5-(2-methoxyethyl)-3-[3-(trifluoromethyl)phenoxy]pyridazine-4-carboxylic acid]	1.74
COC(=O)c1c(Oc2cccc(Cl)c2)nnc(Cl)c1C [Compound 1-033, methyl 6-chloro-3-(3-chlorophenoxy)-5-methyl-pyridazine-4-carboxylate]	3.37
CCOC(=O)c1cc(C)nnc1Oc1cncc(C(F)(F)F)c1 [Compound 1-036]	2.37
COC(=O)c1c(Oc2cccc(Cl)c2)nnc(C)c1C [Compound 1-042]	2.71
COC(=O)c1c(Oc2cccc(C(F)(F)F)c2)nnc(Cl)c1OC [Compound 1-046]	3.52
COC(=O)c1c(Oc2cccc(C(F)(F)F)c2)nnc(Cl)c1Cl [Compound 1-049]	3.86
COC(=O)c1c(Oc2cccc(C(F)F)c2F)nnc(Cl)c1Cl [Compound 1-055]	3.51
CCOC(=O)c1c(Oc2cccc(C3CC3)c2)nnc(Cl)c1Cl [Compound 1-056]	4.41
CCOC(=O)c1c(Oc2cccc(C(F)(F)F)c2)nnc(Cl)c1OCC [Compound 1-060]	4.23
COC(=O)c1c(Oc2cccc(C(F)(F)F)c2F)nnc(Cl)c1Cl [Compound 1-064]	3.96
